Test results published in patent publication EP1714645A1, “Pharmaceutical composition containing bakuchiol for treating breast cancer in women” (Sinphar Pharmaceutical Co., Ltd., priority 2005, dated 2006).
In brackets after ≈: the same amount, converted by molar mass.

Tests used:
[1] = system: five different human cancer cells (lung (A549), ovary (SK-OV-3), skin (SK-MEL-2), central nervous system (XF498), and large intestine (HCT)); conditions: range over A549, SK-OV-3, SK-MEL-2, XF498, HCT; cited from earlier work
[2] = system: female Wistar rats; experiment: Ovariectomized rat osteoporosis model, bone histomorphometry of proximal tibia; format: in vivo; conditions: two months, mean value, p < 0.001 vs OVX; for Bone volume % (BV/TV): proximal tibia head trabecular bone, OVX group 12.50%, Sham 29.50%; for Erosion surface (ESBS, %): proximal tibia, OVX group 5.8%, Sham 4.7%
Excerpt: (§1) The purpose of this example is to show the potency of bakuchiol in treating osteoporosis, wherein ovary of a female rat is removed to stimulate osteoporosis caused by estrogen deficiency.
(§2) The female Wistar rats of 16 weeks old (unless specified in the other experiment description) were obtained from the stock reared by the Animal breeding center, National Scientific Council in Taipei. These rats were grouped by weights matched in order to distribute the physiological response variation from rats evenly into each group. These rats were grouping as follows: • Baseline group fed with no drug added food (n=8) • Sham operation group fed with no drug added food (Sham) (n=10) • Ovariectomy operation group fed with no drug added food (OVX) (n=8) • Ovariectomy operation group fed with Drug A (5 mg/kg) added food (OVX+A) (n=9) • Ovariectomy operation group fed with Drug B (15 mg/kg) added food (OVX+B) (n=9)
Ovariectomy (removal of ovaries) operation: Ovariectomy was induced using a protocol similar to that described by Wronski et al (Wronski et al, Endocrinology, 123(2), 681-86 (1988)).
During the experiments, the rats were housed in hanging grid cages in groups of two at 21°C with a 12 hours dark cycle. Food (Rat-mouse diet III, adequate in 1 % of calcium content and 1.2 % of phosphate content, Purina, USA) was administered by paired feeding between the experimental and control groups. Pair-feeding was carried out by calculating the average amount of food intake in the Sham group. So give the same amount of food to the OVX , OVX+A (5 mg/kg), OVX+B (15 mg/kg) group animals the following day. These animals were fed with a period of two months except for the baseline group which were killed on the very day of doing ovariectomy or sham operation. Rats of OVX+A and OVX+B groups were fed with the usual food chuck but added certain amount of compound A and B in it respectively. Water was given ad libitum to all rats.
The test drug was weighted according to dose of 5 mg/kg and 15 mg/kg, and added into the ususal food chuck powder and mixed with 10% starch paste. After fully mixed, these chuck powder were made into mass manually and dried by air flow oven. The food with added drug to rats was performed by single blind method.
These labeling and bone histomorphometry assessment were done based on standard procedure in bone research (Lin et al, Calcif. Tissue Int., 67, 373-377 (2000)). Specimen were prestained with Villanueva bone stain, then […] and embedded in London resin. Undecalcified sections of 7 µm thick were cut using Jung-K microtome (Leica Ltd, USA) and treated with Villanueva stain for observation under light microscopy. Seven µm thick unstained sections were prepared for fluorescent microscopy and assessed with program Osteomeasure (3.0 version, Atlanta, USA). […]

[3] = system: female Wistar rats; experiment: Ovariectomized rat osteoporosis model, apparent bone density measurement of tibia (Archimedes principle); format: in vivo; conditions: two months, mean value, OVX group 1.549, Sham 1.589, p < 0.05 vs OVX
Excerpt: as §1, §2
Ovariectomy (removal of ovaries) operation: Ovariectomy was induced using a protocol similar to that described by Wronski et al (Wronski et al, Endocrinology, 123(2), 681-86 (1988)). […]
The whole tibia and femur were stripped off attached muscles and ligaments after sacrifice. […] The weight of bone measured in the air was marked as W-air. […] The apparent bone density was calculated as [W-air/(W-air minus W-water)] […]

[4] = system: MDA-MB231; experiment: Cytotoxicity assay (CCK-8, net growth % vs control); format: cell-based; conditions: Homo sapiens, MDA-MB-231; MDA-MB231 (estrogen receptor negative), 48 hours incubation; read-out: 50% inhibition of cell growth concentrations of test compounds (IC50)
Excerpt: (§3) Materials: DMEM (medium), RPMI (medium), L-glutamine, penicillin, streptomycin and FBS (fetal bovine serum) were obtained from Gibco (NY, USA). Culture plasticware was purchased from Coming (MA, USA). […] All other chemicals used were of reagent grade and were purchased from Sigma or E. Merck (Germany).
(§4) Cell lines and cell cultures: The human breast cancer cell lines T47D and MDA-MB231 were obtained from American Type Culture Collection (ATCC). Of both cancer cells, T47D is estrogen receptor positive, and MDA-MB231 is estrogen receptor negative. Cells were cultured at 37°C in RPMI medium containing 10% charcoal-dextran stripped fetal bovine serum for T47D cells and in DMEM medium containing 10% charcoal-dextran stripped fetal bovine serum for MDA-MB231 cells with 5% CO2. The cell proliferation was determined by counting the viable cells with trypan blue exclusion.
(§5) Cytotoxicity assay: Dispense 198 µl of cell suspension (20,000 cells for T47D per well and 10,000 cell for MDA-MB231 per well) in a 96-well plate and pre-incubate the plate for 24 hours in an incubator at 37°C with humidified 5% CO2. […] After plate was incubated for 48 hours in the incubator, media were aspirated of and new media (100 µl) were added and incubated for 1 more hour. […] Measure the absorbance at 450 nm using a ELISA reader. […]

[5] = system: T47D; experiment: as above; format: cell-based; conditions: Homo sapiens; T47D (estrogen receptor positive), 48 hours incubation; read-out: 50% inhibition of cell growth concentrations of test compounds (IC50)
Excerpt: as §3, §4, §5

C=C[C@@](C)(/C=C/c1ccc(O)cc1)CCC=C(C)C [Bakuchiol, bakuchiol]
average inhibitory concentration (IC50) [1]: 10~15 µg/cc
Bone volume % (BV/TV) ([2]; OVX+A group (5 mg/kg) in food): 19.80%
Erosion surface (ESBS, %) ([2]; OVX+A group (5 mg/kg) in food): 5.0%
Bone volume % (BV/TV) ([2]; OVX+B group (15 mg/kg) in food): 20.11%
Erosion surface (ESBS, %) ([2]; OVX+B group (15 mg/kg) in food): 4.8%
Bone apparent density ([3]; OVX+A group (5 mg/kg) in food): 1.582 gm/cm^3
Bone apparent density ([3]; OVX+B group (15 mg/kg) in food): 1.587 gm/cm^3
IC50 [4]: 0.62 µg/mL (≈ 2.42 µM)
IC50 [5]: 5 µg/mL (≈ 19.5 µM)
